Measurements published in the NIST ThermoML archive (doi:10.1016/j.fluid.2015.03.048).

Key:
[1] = Liquid; for viscosity: 100 kPa, Capillary tube (Ostwald / Ubbelohde) method; for mass density: 101.33 kPa, Pycnometric method
[2] = xn = mol fraction of the nth substance listed; details: 303.15 K, 100 kPa, Liquid; for viscosity: Capillary tube (Ostwald / Ubbelohde) method; for excess molar volume: Direct dilatometry; for speed of sound: Frequency=3 MHz, Sing-around technique in a fixed-path interferometer; for mass density: Pycnometric method

Clc1ccc(Cl)c(Cl)c1 [1,2,4-trichlorobenzene]
[1], 303.15 K
Details	mass density [kg/m3]	viscosity [mPa·s]
–	1442.12	1.611

Clc1ccccc1Cl [1,2-dichlorobenzene]
[1], 303.15 K
Details	mass density [kg/m3]	viscosity [mPa·s]
–	1299.2	1.301

Clc1cccc(Cl)c1 [1,3-dichlorobenzene]
[1], 303.15 K
Details	mass density [kg/m3]	viscosity [mPa·s]
–	1277.16	1.023

Cc1ccccc1Cl [2-chlorotoluene]
[1], 303.15 K
Details	mass density [kg/m3]	viscosity [mPa·s]
–	1072.82	0.884

Cc1ccccc1[N+](=O)[O-] [2-nitrotoluene]
[1], 303.15 K
Details	mass density [kg/m3]	viscosity [mPa·s]
–	1153.24	1.908

Cc1cccc(Cl)c1 [3-chlorotoluene]
[1]
Details	mass density [kg/m3]	viscosity [mPa·s]
293.15 K	1072.15	–
303.15 K	–	0.782

Cc1cccc([N+](=O)[O-])c1 [3-nitrotoluene]
[1], 303.15 K
Details	mass density [kg/m3]	viscosity [mPa·s]
–	1147.67	1.775

Cc1ccc(Cl)cc1 [4-chlorotoluene]
[1]
Details	mass density [kg/m3]	viscosity [mPa·s]
298.15 K	1065.14	–
303.15 K	–	0.902

Cc1ccc(Cl)cc1 [4-chlorotoluene] + CC(=O)N(C)C
[2]
Details	excess molar volume [m3/mol]	mass density [kg/m3]	speed of sound [m/s]	viscosity [mPa·s]
x2 = 0.0699	–	1056.58	1286	–
x2 = 0.0876	-6e-09	–	–	0.897
x2 = 0.0969	–	1053.3	1294	–
x2 = 0.1205	-1e-08	–	–	0.895
x2 = 0.1267	–	1049.63	1303	–
x2 = 0.1564	-1.2e-08	–	–	0.893
x2 = 0.1767	–	1043.58	1317	–
x2 = 0.2099	–	1039.44	1326	–
x2 = 0.2145	-1.6e-08	–	–	0.89
x2 = 0.2522	–	1034.25	1339	–
x2 = 0.2534	-1.9e-08	–	–	0.888
x2 = 0.3011	-2.2e-08	–	–	0.886
x2 = 0.3187	–	1026.08	1359	–
x2 = 0.374	-2.6e-08	–	–	0.884
x2 = 0.4342	–	1011.83	1385	–
x2 = 0.4664	–	1007.85	1392	–
x2 = 0.4933	–	1004.51	1397	–
x2 = 0.495	-2.9e-08	–	–	0.882
x2 = 0.5275	-2.9e-08	–	–	0.88
x2 = 0.5443	–	998.18	1403	–
x2 = 0.5543	-2.8e-08	–	–	0.879
x2 = 0.6041	-2.7e-08	–	–	0.878
x2 = 0.6513	–	984.88	1415	–
x2 = 0.7047	-2.2e-08	–	–	0.876
x2 = 0.7148	–	976.97	1420	–
x2 = 0.762	-1.8e-08	–	–	0.874
x2 = 0.7858	–	968.12	1424	–
x2 = 0.8241	-1.4e-08	–	–	0.872
x2 = 0.8524	–	959.81	1425	–
x2 = 0.8806	-1e-08	–	–	0.87

CC(=O)N(C)C [N,N-dimethylethanamide]
[1], 303.15 K
Details	mass density [kg/m3]	viscosity [mPa·s]
–	941.35	0.865
